According to patent US20260317320A1, “C5AR1 ANTAGONISTS AND USES THEREOF” (Vanqua Bio, Inc., priority 2022, published 2026):

Target: T1, complement C5a receptor 1 (C5aR1) (Homo sapiens, UniProt P21730)
T1 construct: β-galactosidase fragment (PathHunter enzyme complementation); host or cells: CHO-K1 (PathHunter CHO-K1 C5aR1 β-arrestin cell line)
T1 sequence (P21730 1-350): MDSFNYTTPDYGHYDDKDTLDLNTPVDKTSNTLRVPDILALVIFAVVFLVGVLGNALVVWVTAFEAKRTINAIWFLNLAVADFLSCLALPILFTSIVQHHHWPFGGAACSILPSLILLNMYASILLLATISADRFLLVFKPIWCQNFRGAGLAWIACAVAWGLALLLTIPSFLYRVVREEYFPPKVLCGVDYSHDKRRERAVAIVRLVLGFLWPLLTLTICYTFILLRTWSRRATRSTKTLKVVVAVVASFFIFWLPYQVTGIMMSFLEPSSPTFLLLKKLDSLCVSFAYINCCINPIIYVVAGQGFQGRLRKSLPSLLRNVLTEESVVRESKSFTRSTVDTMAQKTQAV
Experiment: β-arrestin recruitment via C5aR1 activation in live CHO-K1 cells (PathHunter), antagonist mode
Assay type: cell-based
Settings: not given; call rule not given here
Protocol: (§1) Exemplary compounds were evaluated for classical GPCR β-arrestin recruitment via complement C5a receptor 1 (C5aR1) activation in live CHO-K1 cells. This cell line expresses two fragments of the […] protein coupled to β-arrestin and C5aR1. Complementation of the two fragments allows for the assessment of both C5aR1 agonism and antagonism. Recombinant hC5a (EC90) was used as the competing natural agonist against disclosed compounds (more information on the expanded protocol and cell line can be found on the manufacturer's website: PathHunter® CHO-K1 C5aR1 β-arrestin cell line, DiscoverX, Catalog No. 93-0557C2). […] IC50 ranges: A: IC50≤500 nM; B: 500 nM<IC50≤5 uM; C: 5 uM<IC50≤100 uM; D: IC50>100 uM.

IC50 [nM]	Compound
< 500	Cc1cnc2cc(C3CCN(c4c(C)cccc4F)CC3)c(=O)n(Cc3cccnc3OC(F)(F)F)c2n1 [compound 100, 7-(1-(2-Fluoro-6-methylphenyl)piperidin-4-yl)-3-methyl-5-((2-(trifluoromethoxy)pyridin-3-yl)methyl)pyrido[2,3-b]pyrazin-6(5H)-one]

Same assay, conditions: antagonist mode; recombinant hC5a (EC90) as competing natural agonist; live CHO-K1 cells; read-out: [Antagonist] B-arrestin2 recruitment: Average IC50

Compound	IC50 [nM]
Cc1cnc2cc([C@H]3CC[C@H](c4c(C)cccc4F)CC3)c(=O)n(Cc3nccnc3C)c2n1 [137B, (R)-7-((1r,4r)-4-(2-Fluoro-6-methylphenyl)cyclohexyl)-3-methyl-5-((3-methylpyrazin-2-yl)methyl)pyrido[2,3-b]pyrazin-6(5H)-one]	< 500
Cc1cccc(F)c1N1CCC(c2cc3nccnc3n([C@H]3CCc4nccnc43)c2=O)CC1 [160A, (S)-5-(6,7-Dihydro-5H-cyclopenta[b]pyrazin-5-yl)-7-(1-(2-fluoro-6-methylphenyl)piperidin-4-yl)pyrido[2,3-b]pyrazin-6(5H)-one]	5000 to 100000
Cc1cccc(F)c1N1CCC(c2cc3nccnc3n(Cc3ccccc3C(F)(F)F)c2=O)CC1 [compound 1, 7-(1-(2-Fluoro-6-methylphenyl)piperidin-4-yl)-5-(2-(trifluoromethyl)benzyl)pyrido[2,3-b]pyrazin-6(5H)-one]	< 500
COc1cnc2cc(C3CCN(c4c(C)cccc4F)CC3)c(=O)n(Cc3nccnc3C(F)(F)F)c2n1 [compound 76, 7-(1-(2-Fluoro-6-methylphenyl)piperidin-4-yl)-3-methoxy-5-((3-(trifluoromethyl)pyrazin-2-yl)methyl)pyrido[2,3-b]pyrazin-6(5H)-one]	500 to 5000
COc1ccnc(F)c1N1CCC(c2cc3ncc(C)nc3n(Cc3ncccc3C(F)(F)F)c2=O)CC1 [compound 85, 7-(1-(2-Fluoro-4-methoxypyridin-3-yl)piperidin-4-yl)-3-methyl-5-((3-(trifluoromethyl)pyridin-2-yl)methyl)pyrido[2,3-b]pyrazin-6(5H)-one]	< 500
COc1ccnc(F)c1N1CCC(c2cc3ncc(C)nc3n(Cc3nccnc3C(F)(F)F)c2=O)CC1 [compound 80, 7-(1-(2-Fluoro-4-methoxypyridin-3-yl)piperidin-4-yl)-3-methyl-5-((3-(trifluoromethyl)pyrazin-2-yl)methyl)pyrido[2,3-b]pyrazin-6(5H)-one]	500 to 5000
Cc1cnc2cc([C@H]3CC[C@@H](c4c(C)cccc4F)CC3)c(=O)n(Cc3ncccc3C(F)(F)F)c2n1 [121b, 7-(cis-4-(2-Fluoro-6-methylphenyl)cyclohexyl)-3-methyl-5-((3-(trifluoromethyl)pyridin-2-yl)methyl)pyrido[2,3-b]pyrazin-6(5H)-one]	500 to 5000
Cc1cnc2cc(C3CCN(c4c(C)cccc4F)CC3)c(=O)n(Cc3ccccc3OC(F)(F)F)c2n1 [compound 78, 7-(1-(2-Fluoro-6-methylphenyl)piperidin-4-yl)-3-methyl-5-(2-(trifluoromethoxy)benzyl)pyrido[2,3-b]pyrazin-6(5H)-one]	500 to 5000
COc1ncnc2cc(C3CCN(c4c(C)cccc4F)CC3)c(=O)n(Cc3nccnc3C(F)(F)F)c12 [compound 93, 7-(1-(2-Fluoro-6-methylphenyl)piperidin-4-yl)-4-methoxy-5-((3-(trifluoromethyl)pyrazin-2-yl)methyl)pyrido[3,2-d]pyrimidin-6(5H)-one]	> 100000
COc1ccnc(F)c1N1CCC(c2cc3nccnc3n(Cc3ncccc3C(F)(F)F)c2=O)CC1 [compound 79, 7-(1-(2-Fluoro-4-methoxypyridin-3-yl)piperidin-4-yl)-5-((3-(trifluoromethyl)pyridin-2-yl)methyl)pyrido[2,3-b]pyrazin-6(5H)-one]	500 to 5000
Cc1cnc2cc([C@H]3CC[C@@H](c4c(C)cccc4F)CC3)c(=O)n(Cc3nccnc3C(F)(F)F)c2n1 [99a, 7-(cis-4-(2-Fluoro-6-methylphenyl)cyclohexyl)-3-methyl-5-((3-(trifluoromethyl)pyrazin-2-yl)methyl)pyrido[2,3-b]pyrazin-6(5H)-one]	500 to 5000

More lines, now with the values ahead:

IC50 [nM]	Compound
< 500	Cc1ccc2cc([C@H]3CC[C@H](c4c(C)cccc4F)CC3)c(=O)n(Cc3nccnc3C(F)(F)F)c2n1 [compound 194, 3-((1r,4r)-4-(2-Fluoro-6-methylphenyl)cyclohexyl)-7-methyl-1-((3-(trifluoromethyl)pyrazin-2-yl)methyl)-1,8-naphthyridin-2(1H)-one]
500 to 5000	Cc1ncc2cc(N3CCN(c4c(C)cccc4F)CC3)c(=O)n(Cc3ncccc3OC(F)F)c2n1 [compound 117, 8-((3-(Difluoromethoxy)pyridin-2-yl)methyl)-6-(4-(2-fluoro-6-methylphenyl)piperazin-1-yl)-2-methylpyrido[2,3-d]pyrimidin-7(8H)-one]
< 500	Cc1cnc2cc(C3CCN(c4c(C)cccc4F)CC3)c(=O)n(Cc3nccnc3C)c2n1 [compound 106, 7-(1-(2-Fluoro-6-methylphenyl)piperidin-4-yl)-3-methyl-5-((3-methylpyrazin-2-yl)methyl)pyrido[2,3-b]pyrazin-6(5H)-one]
5000 to 100000	COc1cnc2cc(C3CCN(c4c(C)cccc4F)CC3)c(=O)n(Cc3nccnc3C)c2n1 [compound 112, 7-(1-(2-Fluoro-6-methylphenyl)piperidin-4-yl)-3-methoxy-5-((3-methylpyrazin-2-yl)methyl)pyrido[2,3-b]pyrazin-6(5H)-one]
< 500	Cc1ncc2cc(N3CCN(c4c(C)cccc4F)CC3)c(=O)n(Cc3ncccc3OC(F)(F)F)c2n1 [compound 110, 6-(4-(2-Fluoro-6-methylphenyl)piperazin-1-yl)-2-methyl-8-((3-(trifluoromethoxy)pyridin-2-yl)methyl)pyrido[2,3-d]pyrimidin-7(8H)-one]
500 to 5000	Cc1ncc2cc(N3CCN(c4c(C)cccc4F)CC3)c(=O)n(Cc3ncccc3C(F)(F)F)c2n1 [compound 119, 6-(4-(2-Fluoro-6-methylphenyl)piperazin-1-yl)-2-methyl-8-((3-(trifluoromethyl)pyridin-2-yl)methyl)pyrido[2,3-d]pyrimidin-7(8H)-one]
500 to 5000	Cc1cccc(F)c1N1CCC(c2cc3nccnc3n(Cc3cncnc3C(F)(F)F)c2=O)CC1 [compound 116, 7-(1-(2-Fluoro-6-methylphenyl)piperidin-4-yl)-5-((4-(trifluoromethyl)pyrimidin-5-yl)methyl)pyrido[2,3-b]pyrazin-6(5H)-one]
500 to 5000	Cc1cnc2cc(C3CCN(c4nnccc4C)CC3)c(=O)n(Cc3ncccc3C(F)(F)F)c2n1 [compound 115, 3-Methyl-7-(1-(4-methylpyridazin-3-yl)piperidin-4-yl)-5-((3-(trifluoromethyl)pyridin-2-yl)methyl)pyrido[2,3-b]pyrazin-6(5H)-one]
< 500	Cc1ncc2cc(C3CCN(c4c(C)cccc4F)CC3)c(=O)n(Cc3ncccc3OC(F)F)c2n1 [compound 105, 8-((3-(Difluoromethoxy)pyridin-2-yl)methyl)-6-(1-(2-fluoro-6-methylphenyl)piperidin-4-yl)-2-methylpyrido[2,3-d]pyrimidin-7(8H)-one]

Target: T1, complement C5a receptor 1 (C5aR1)
Experiment: β-arrestin recruitment via C5aR1 activation in live CHO-K1 cells (PathHunter), agonist mode
Assay type: cell-based
Settings: not given
Protocol: as §1

[Agonist] B-arrestin2 recruitment: Average EC50 (nM)	Compound
Non-Active	Cc1ccc2cc([C@H]3CC[C@H](c4c(C)cccc4F)CC3)c(=O)n(Cc3nccnc3C(F)(F)F)c2n1 [compound 194, 3-((1r,4r)-4-(2-Fluoro-6-methylphenyl)cyclohexyl)-7-methyl-1-((3-(trifluoromethyl)pyrazin-2-yl)methyl)-1,8-naphthyridin-2(1H)-one]
Non-Active	Cc1ccc2c(c1)nc(C1CCN(c3c(C)cccc3F)CC1)c(=O)n2Cc1ncccc1C(F)(F)F [142B, 3-(1-(2-Fluoro-6-methylphenyl)piperidin-4-yl)-6-methyl-1-((3-(trifluoromethyl)pyridin-2-yl)methyl)quinoxalin-2(1H)-one]
Non-Active	Cc1ccc2cc([C@H]3CC[C@H](c4c(C)cccc4F)CC3)c(=O)n(Cc3nccnc3C(C)(F)F)c2n1 [compound 269, 1-{[3-(1,1-Difluoroethyl)-2-pyrazinyl]methyl}-7-methyl-3-[(1r,4r)-4-(2-fluoro-6-tolyl)cyclohexyl]-1,8-diaza-2(1H)-naphthalenone]

Same assay, conditions: at 10 μM

[Agonist] B-arrestin2 recruitment: Average EC50 (nM)	Compound
Non-Active at 10 μM	Cc1cnc2cc([C@H]3CC[C@H](c4c(C)cccc4F)CC3)c(=O)n(Cc3nccnc3C)c2n1 [137B, (R)-7-((1r,4r)-4-(2-Fluoro-6-methylphenyl)cyclohexyl)-3-methyl-5-((3-methylpyrazin-2-yl)methyl)pyrido[2,3-b]pyrazin-6(5H)-one]
Non-Active at 10 μM	Cc1cccc(F)c1N1CCC(c2cc3nccnc3n([C@H]3CCc4nccnc43)c2=O)CC1 [160A, (S)-5-(6,7-Dihydro-5H-cyclopenta[b]pyrazin-5-yl)-7-(1-(2-fluoro-6-methylphenyl)piperidin-4-yl)pyrido[2,3-b]pyrazin-6(5H)-one]
Non-Active at 10 μM	Cc1cnc2cc([C@H]3CC[C@H](c4c(C)ccc5c4cnn5C)CC3)c(=O)n(Cc3ncccc3C(F)(F)F)c2n1 [compound 218, 7-((1r,4r)-4-(1,5-Dimethyl-1H-indazol-4-yl)cyclohexyl)-3-methyl-5-((3-(trifluoromethyl)pyridin-2-yl)methyl)pyrido[2,3-b]pyrazin-6(5H)-one]
Non-Active at 10 μM	Cc1cccc(F)c1[C@@H]1CC[C@H](c2cc3nccnc3n(Cc3ncccc3C(F)(F)F)c2=O)C1 [200A, 7-((1S,3R)-3-(2-Fluoro-6-methylphenyl)cyclopentyl)-5-((3-(trifluoromethyl)pyridin-2-yl)methyl)pyrido[2,3-b]pyrazin-6(5H)-one]
Non-Active at 10 μM	Cc1cccc(F)c1[C@H]1CC[C@H](c2cc3nccnc3n(Cc3ncccc3C(F)(F)F)c2=O)C1 [200B, 7-((1S,3S)-3-(2-Fluoro-6-methylphenyl)cyclopentyl)-5-((3-(trifluoromethyl)pyridin-2-yl)methyl)pyrido[2,3-b]pyrazin-6(5H)-one]
